Assays:
[1] = target: T1, Type-1 angiotensin II receptor B (Rattus norvegicus, UniProt P29089); test: In vitro inhibition of specific binding of [125I]AII to Angiotensin II receptor, type 1 from rat liver membrane
T1 sequence (P29089 whole entry): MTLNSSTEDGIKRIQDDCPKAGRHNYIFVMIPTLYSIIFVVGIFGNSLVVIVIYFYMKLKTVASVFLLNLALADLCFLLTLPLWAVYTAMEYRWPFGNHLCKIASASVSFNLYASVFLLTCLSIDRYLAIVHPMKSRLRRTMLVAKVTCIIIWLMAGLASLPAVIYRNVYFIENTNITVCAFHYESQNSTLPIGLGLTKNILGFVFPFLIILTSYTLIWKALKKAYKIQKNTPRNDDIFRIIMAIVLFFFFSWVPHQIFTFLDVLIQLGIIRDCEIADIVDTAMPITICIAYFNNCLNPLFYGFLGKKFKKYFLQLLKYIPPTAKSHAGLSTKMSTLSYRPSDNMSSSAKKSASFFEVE

Monkey [2] = test: Tested for induced pressor response to AII (100 ng/kg, iv) in conscious normotensive monkey at a compound dose of 3 mg/kg po for 0 hr; type: functional, Cercopithecidae
Rattus norvegicus [3] = test: Tested for induced pressor response to AII (40 ng/kg, iv) in conscious normotensive rats at a compound dose of 3 mg/kg po for 0 min; type: functional
Monkey [4] = test: Tested for induced pressor response to AII (100 ng/kg, iv) in conscious normotensive monkey at a compound dose of 3 mg/kg po for 2 hr; type: functional, Cercopithecidae
Monkey [5] = test: Tested for induced pressor response to AII (100 ng/kg, iv) in conscious normotensive monkey at a compound dose of 3 mg/kg po for 1 hr; type: functional, Cercopithecidae
Rattus norvegicus [6] = test: Tested for induced pressor response to AII (40 ng/kg, iv) in conscious normotensive rats at a compound dose of 3 mg/kg po for 90 min; type: functional
Monkey [7] = test: Tested for induced pressor response to AII (100 ng/kg, iv) in conscious normotensive monkey at a compound dose of 3 mg/kg po for 3 hr; type: functional, Cercopithecidae
Rattus norvegicus [8] = test: Tested for induced pressor response to AII (40 ng/kg, iv) in conscious normotensive rats at a compound dose of 3 mg/kg po for 180 min; type: functional
Rattus norvegicus [9] = test: Tested for induced pressor response to AII (40 ng/kg, iv) in conscious normotensive rats at a compound dose of 3 mg/kg po for 120 min; type: functional
Monkey [10] = test: Tested for induced pressor response to AII (100 ng/kg, iv) in conscious normotensive monkey at a compound dose of 3 mg/kg po for 4 hr; type: functional, Cercopithecidae
Rattus norvegicus [11] = test: Tested for induced pressor response to AII (40 ng/kg, iv) in conscious normotensive rats at a compound dose of 3 mg/kg po for 60 min; type: functional
Rattus norvegicus [12] = test: Tested for induced pressor response to AII (40 ng/kg, iv) in conscious normotensive rats at a compound dose of 3 mg/kg po for 15 min; type: functional
Rattus norvegicus [13] = test: Tested for induced pressor response to AII (40 ng/kg, iv) in conscious normotensive rats at a compound dose of 3 mg/kg po for 30 min; type: functional
Monkey [14] = test: Tested for induced pressor response to AII (100 ng/kg, iv) in conscious normotensive monkey at a compound dose of 3 mg/kg po for 5 hr; type: functional, Cercopithecidae

| Compound | IC50 [1] [nM] | Delta MAP (Monkey [2]) [mmHg] | Delta MAP (Rattus norvegicus [3]) [mmHg] | Delta MAP (Monkey [4]) [mmHg] | Delta MAP (Monkey [5]) [mmHg] | Delta MAP (Rattus norvegicus [6]) [mmHg] | Delta MAP (Monkey [7]) [mmHg] | Delta MAP (Rattus norvegicus [8]) [mmHg] | Delta MAP (Rattus norvegicus [9]) [mmHg] | Delta MAP (Monkey [10]) [mmHg] | Delta MAP (Rattus norvegicus [11]) [mmHg] | Delta MAP (Rattus norvegicus [12]) [mmHg] | Delta MAP (Rattus norvegicus [13]) [mmHg] | Delta MAP (Monkey [14]) [mmHg] |
| --- | --- | --- | --- | --- | --- | --- | --- | --- | --- | --- | --- | --- | --- | --- |
| CCCCC1=NC2(CCCC2)CC(=O)N1Cc1ccc(-c2ccccc2C(=O)O)cc1 | 53 | – | – | – | – | – | – | – | – | – | – | – | – | – |
| CCCCC1=NC2(CCCC2)CC(=O)N1Cc1ccc(-c2ccccc2-c2nn[nH]n2)cc1 | 1 | ~33 | ~35 | ~29 | ~27 | ~18 | ~29 | ~17 | ~15 | ~32 | ~14 | ~10 | ~15 | – |
| CCCCC1=NCC2(CCCC2)C(=O)N1Cc1ccc(-c2ccccc2C(=O)O)cc1 | 71 | – | – | – | – | – | – | – | – | – | – | – | – | – |
| CCCCC1=NC2(CCCC2)C(C)(C)C(=O)N1Cc1ccc(-c2ccccc2-c2nnn[nH]2)cc1 | 2.2 | – | – | – | – | – | – | – | – | – | – | – | – | – |
| CCCCC1=NC(=O)C2(CCCC2)CN1Cc1ccc(-c2ccccc2C(=O)O)cc1 | 1300 | – | – | – | – | – | – | – | – | – | – | – | – | – |
| CCCCC1=NC2(CCCC2)C(=O)N1Cc1ccc(-c2ccccc2-c2nnn[nH]2)cc1 [IRBESARTAN] | – | ~33 | ~45 | ~15 | ~9 | ~17 | ~18 | ~17 | ~18 | ~23 | ~20 | ~22 | ~22 | ~25 |
